Laboratory results as given in patent publication US20090076050A1, “SYNERGISTIC TUMOR-KILLING EFFECT OF RADIATION AND BERBERINE COMBINED TREATMENT IN LUNG CANCER” (CHUNG SHAN MEDICAL U., priority 2007, published 2009).

System: A549 cells
Assay: cell cycle distribution by propidium iodide flow cytometry
Format: cell-based, human
Conditions: 24 h
Experimental: Flow cytometry was performed by propidium iodide staining (Roche Molecular Biochemical, Indianapolis, USA) according to the manufacturer's instructions. Untreated and treated cells were washed in PBS and fixed in ice-cold ethanol. Fixed cells were pelleted and resuspended in 500 μl of PBS. Then, the cells were stained with propidium iodide and analyzed for cell cycle distribution by flow cytometry with a FACStar caliber (Becton Dickinson) cell sorter. The percentage of each phase was evaluated by Cell-Quest software of the histograms.

[1] = IR (6 Gy) + 5.0 μM berberine, listed as Ber

Compound: COc1ccc2cc3[n+](cc2c1OC)CCc1cc2c(cc1-3)OCO2 [berberine, Berberine]
- G0/G1 (IR (6 Gy) + 2.5 μM berberine): 45.5 ± 4.96%
- G2/M (IR (6 Gy) + 2.5 μM berberine): 28.8%
- S (IR (6 Gy) + 2.5 μM berberine): 20.1 ± 2.26%
- sub G1 (IR (6 Gy) + 2.5 μM berberine): 5.6 ± 0.18%
- G2/M (IR (6 Gy) + 2.5 μM berberine, listed as Ber): 28.8 ± 2.91%
- G0/G1 (IR (6 Gy) + 5.0 μM berberine): 36.2 ± 4.15%
- G2/M (IR (6 Gy) + 5.0 μM berberine): 40.5%
- S (IR (6 Gy) + 5.0 μM berberine): 14.8 ± 2.05%
- sub G1 (IR (6 Gy) + 5.0 μM berberine): 8.5%
- G2/M [1]: 40.5 ± 4.55%
- sub G1 [1]: 8.5 ± 0.22%
- G0/G1 (IR (6 Gy) + 10 μM berberine): 33.9 ± 4.01%
- G2/M (IR (6 Gy) + 10 μM berberine): 41.7%
- S (IR (6 Gy) + 10 μM berberine): 15.5 ± 1.81%
- sub G1 (IR (6 Gy) + 10 μM berberine): 8.9 ± 0.25%
- G2/M (IR (6 Gy) + 10 μM berberine, listed as Ber): 41.7 ± 3.91%
- G0/G1 (IR (6 Gy) + 20 μM berberine): 37.2 ± 4.27%
- G2/M (IR (6 Gy) + 20 μM berberine): 30.5 ± 3.18%
- S (IR (6 Gy) + 20 μM berberine): 16.7 ± 2.33%
- sub G1 (IR (6 Gy) + 20 μM berberine): 15.6 ± 1.26%
